Patent US20110200557A1, “NEW 2-AMIDOTHIADIAZOLE DERIVATIVES” (priority 2008, published 2011)

biological target: S1P1 receptors (Homo sapiens, UniProt P21453); assay: 35S-GTPyS binding assay; format: biochemical; conditions: membranes; compound 0.1 nM-10 μM; 0.1 nM 35S-GTPyS; 10 μM S1P as 100% maximum efficacy; 90 min at room temperature
Experimental: The effect of the compounds was measured using a 35S-GTPyS binding assay. Briefly, membranes were incubated in a buffer containing 20 mM HEPES pH 7.4, 100 mM NaCl, 10 mM MgCl2, 10 μM GDP, 50 μg/ml saponin and 0.2% fatty acid-free BSA at various concentrations (0.1 nM-10 μM) and 0.1 nM 35S-GTPyS. 10 μM S1P was used as 100% maximum efficacy. The assay was incubated for 90 min at room temperature with gentle mixing, and terminated by filtrating the reaction mixture through GF/C filter plates using the Manifold Filtration System. The filters were immediately washed with sodium phosphate pH 7.4 buffers. After drying the filter plate's scintillant liquid were added to each well and 35S-GTPyS binding was measured on a Trilux Scintillation Counter.

Sequence of S1P1 receptors (P21453 whole entry): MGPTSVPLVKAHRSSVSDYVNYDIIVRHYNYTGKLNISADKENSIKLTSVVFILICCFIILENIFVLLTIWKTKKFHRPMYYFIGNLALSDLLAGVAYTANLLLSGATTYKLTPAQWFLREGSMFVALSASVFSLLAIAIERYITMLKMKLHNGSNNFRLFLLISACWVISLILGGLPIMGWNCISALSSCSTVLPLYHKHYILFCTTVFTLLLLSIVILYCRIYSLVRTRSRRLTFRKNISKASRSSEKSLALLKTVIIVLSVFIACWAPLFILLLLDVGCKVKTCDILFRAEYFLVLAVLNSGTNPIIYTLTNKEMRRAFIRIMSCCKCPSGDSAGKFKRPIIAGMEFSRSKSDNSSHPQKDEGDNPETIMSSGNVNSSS

Row | Structure (SMILES) | EC50 [nM]
1 | COc1c(C)cc(-c2nnc(N(CC3CC3)C(=O)c3ccccc3F)s2)cc1C [Example 46, N-(cyclopropylmethyl)-2-fluoro-N-[5-(4-methoxy-3,5-dimethylphenyl)-1,3,4-thiadiazol-2-yl]benzamide] | 36
2 | CCCCN(C(=O)c1ccccc1F)c1nnc(-c2ccc3nccn3c2)s1 [Example 49, N-butyl-2-fluoro-N-(5-(imidazo[1,2-a]pyridin-6-yl)-1,3,4-thiadiazol-2-yl)benzamide] | 88.7
3 | CCCCN(C(=O)c1ccccc1F)c1nnc(-c2ccc(C(=O)NCCC(=O)O)cc2)s1 [Example 69, N-(4-{5-[Butyl(2-fluorobenzoyl)amino]-1,3,4-thiadiazol-2-yl}benzoyl)-beta-alanine] | 55
4 | CCCCN(C(=O)Cc1ccccc1F)c1nnc(-c2ccc(CN3CC(C(=O)O)C3)cc2)s1 [Example 87, 1-[4-(5-{Butyl[(2-fluorophenyl)acetyl]amino}-1,3,4-thiadiazol-2-yl)benzyl]azetidine-3-carboxylic acid] | 1.4
5 | CCCCN(C(=O)c1ccccc1F)c1nnc(-c2ccc(CN3CCC(C(=O)O)C3)cc2C)s1 (stereo not drawn) [Example 97, 1-(4-{5-[Butyl(2-fluorobenzoyl)amino]-1,3,4-thiadiazol-2-yl}-3-methylbenzyl)-pyrrolidine-3-carboxylic acid] | 2
6 | CCCCN(C(=O)c1ccccc1F)c1nnc(-c2cc(C)c(OCCN)c(C)c2)s1 [Example 105, N-{5-[4-(2-Aminoethoxy)-3,5-dimethylphenyl]-1,3,4-thiadiazol-2-yl}-N-butyl-2-fluorobenzamide] | 0.45
7 | CCN(C(=O)c1cccc(Cl)c1F)c1nnc(-c2ccc(CN3CC(C(=O)O)C3)cc2)s1 [Example 108, 1-(4-{5-[(3-Chloro-2-fluorobenzoyl)(ethyl)amino]-1,3,4-thiadiazol-2-yl}benzyl)-azetidine-3-carboxylic acid] | 7
8 | CCCCN(C(=O)c1cccc(Cl)c1F)c1nnc(-c2cc(C)c(OCC(O)CO)c(C)c2)s1 (stereo not drawn) [Example 111, N-Butyl-3-chloro-N-{5-[4-(2,3-dihydroxypropoxy)-3,5-dimethylphenyl]-1,3,4-thiadiazol-2-yl}-2-fluorobenzamide] | 0.15
9 | CCCCN(C(=O)c1ccccc1F)c1nnc(-c2cc(C)c(OCC(O)CN)c(C)c2)s1 (stereo not drawn) [Example 113, N-{5-[4-(3-Amino-2-hydroxypropoxy)-3,5-dimethylphenyl]-1,3,4-thiadiazol-2-yl}-N-butyl-2-fluorobenzamide] | 1.52
10 | CCCCN(C(=O)c1ccccc1Cl)c1nnc(-c2ccc(CN3CCC(C(=O)O)CC3)cc2C)s1 [Example 118, 1-(4-{5-[Butyl(2-chlorobenzoyl)amino]-1,3,4-thiadiazol-2-yl}-3-methylbenzyl)-piperidine-4-carboxylic acid] | 4.42

Results, then the compound that gave them:

Row | EC50 [nM] | Structure (SMILES)
11 | 6.2 | CCCCN(C(=O)c1ccccc1Cl)c1nnc(-c2cc(C)c(O)c(C)c2)s1 [Example 8, N-butyl-2-chloro-N-[5-(4-hydroxy-3,5-dimethylphenyl)-1,3,4-thiadiazol-2-yl]benzamide]
12 | 4.4 | CCCCN(C(=O)c1ccccc1F)c1nnc(-c2cc(C)c(OC)c(C)c2)s1 [Example 9, N-butyl-2-fluoro-N-[5-(4-methoxy-3,5-dimethylphenyl)-1,3,4-thiadiazol-2-yl]benzamide]
13 | 8.3 | CCCCN(C(=O)c1ccccc1OC)c1nnc(-c2cc(C)c(OC)c(C)c2)s1 [Example 19, N-butyl-2-methoxy-N-[5-(4-methoxy-3,5-dimethylphenyl)-1,3,4-thiadiazol-2-yl]benzamide]
14 | 3.4 | CCCCN(C(=O)c1ccccc1Cl)c1nnc(-c2cc(Cl)nc(OC)c2)s1 [Example 31, N-Butyl-2-chloro-N-[5-(2-chloro-6-methoxypyridin-4-yl)-1,3,4-thiadiazol-2-yl]benzamide]
15 | 64.2 | CCCCN(C(=O)c1ccccc1Cl)c1nnc(-c2cc(C)c(OCCOC)c(C)c2)s1 [Example 32, N-butyl-2-chloro-N-{5-[4-(2-methoxyethoxy)-3,5-dimethylphenyl]-1,3,4-thiadiazol-2-yl}benzamide]
16 | 3.8 | CCCCN(C(=O)c1ccccc1Cl)c1nnc(-c2cc(C)nc(Cl)c2)s1 [Example 39, N-Butyl-2-chloro-N-[5-(2-chloro-6-methylpyridin-4-yl)-1,3,4-thiadiazol-2-yl]benzamide]
17 | 116 | CCCCN(C(=O)c1ccccc1F)c1nnc(-c2ccc(OC)nc2)s1 [Example 48, N-butyl-2-fluoro-N-(5-(6-methoxypyridin-3-yl)-1,3,4-thiadiazol-2-yl)benzamide]
18 | 46.3 | CCCCN(C(=O)c1ccccc1Cl)c1nnc(-c2ccc(C(N)=O)cc2)s1 [Example 53, N-butyl-N-(5-(4-carbamoylphenyl)-1,3,4-thiadiazol-2-yl)-2-chlorobenzamide]
